Tests used:
MEK1 activated ERK1 = target: T1, MEK1 activated ERK1 (Homo sapiens, UniProt P27361); assay: Omnia continuous-read kinase assay for potency against MEK1 activated ERK1; type: biochemical; conditions: MEK1 activated ERK1, ATP at KM; read-out: ERK1 Omnia WT ATP KM IC50
T1 construct: purchased Millipore (Billerica, Mass.) 14-439-K
How it was run: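 Apparent IC50 came from initial reaction slopes (RFU vs time) plotted against log inhibitor with a variable-slope fit. Reactions were started with ERK1 (4 nM final) added to 50 μM ATP, roughly at its appKM, and 10 μM Sox-conjugated ST17 peptide in 20 mM Tris pH 7.5, 5 mM MgCl2. Fluorescence was monitored every 71 seconds.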

[1] = tested on: ERK1/2 phosphorylation of p90RSK in HT29 cells; assay: pRSK MSD Assay in HT29 cells; type: cell-based; conditions: Homo sapiens, HT-29, read-out: ERK1/ERK2 PRSK MSD HT29 EC50
How it was run: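 Serum-starved HT29 cells (0.1% FBS overnight) treated with test compound for 120 min at 37° C, then lysed with protease and phosphatase inhibitors. Phospho-p90RSK quantified by MSD sandwich immunoassay: RSK capture antibody, phospho-RSK detection antibody plus Sulfo-tagged antibody, electrochemiluminescence read.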

Erk1 = target: T2, Erk1 (Homo sapiens, UniProt P27361); assay: Protein Mass Modification Assay (intact protein MALDI, 60 min, 10-fold excess of compound); type: binding
T2 construct: purchased Millipore 14-439
Procedure: Protein Mass Modification Assay
Intact protein: Erk1 from Millipore (Cat. No. 14-439) was incubated for 60 min. at room temperature with a 10-fold excess of test compound to protein. 4 μL aliquots of the resulting mixture were diluted with 15 μL of 0.2% TFA prior to micro C4 ZipTipping directly onto the MALDI target using sinapinic acid as the desorption matrix (10 mg/ml in 0.1% TFA:Acetonitrile 50:50, v/v). The centroid mass of the target protein in the control sample was compared with the centroid mass of the target protein incubated with compound. A shift in the centroid mass of the treated protein compared to the untreated protein was divided by the molecular weight of the compound. This number corresponds to the percentage of modified protein after one hour incubation. Results from this assay are reported in Table A under the column “ERK1 Mass Mod (%).”

[2] = tested on: HT-29 cells (colorectal adenocarcinoma); assay: Inhibition of cancer cell proliferation, HT-29 (CellTiterGlo, 72 hours); type: cell-based; conditions: Homo sapiens
How it was run: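 HT-29 cells seeded at 3000/well, then treated with 3-fold serial dilutions from a 5,000 nM two-fold solution in serum-free RPMI1640, untreated wells as control, for 72 h at 37° C. CellTiterGlo luminescence converted to cell number via a standard curve; GI50 from percent inhibition versus untreated growth.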

T1 sequence (P27361 whole entry): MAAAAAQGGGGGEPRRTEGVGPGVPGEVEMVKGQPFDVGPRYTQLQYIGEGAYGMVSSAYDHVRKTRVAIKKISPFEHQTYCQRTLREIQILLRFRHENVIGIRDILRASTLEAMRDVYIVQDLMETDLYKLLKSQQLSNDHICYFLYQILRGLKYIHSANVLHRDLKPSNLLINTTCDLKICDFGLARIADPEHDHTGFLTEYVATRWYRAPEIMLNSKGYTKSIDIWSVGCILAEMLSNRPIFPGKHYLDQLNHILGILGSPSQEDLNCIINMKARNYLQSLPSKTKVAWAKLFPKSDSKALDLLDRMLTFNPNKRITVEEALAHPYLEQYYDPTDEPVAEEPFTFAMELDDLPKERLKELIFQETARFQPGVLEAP
T2 sequence (P27361 whole entry): as above

Row | SMILES | IC50 (MEK1 activated ERK1) | EC50 [1] | ERK1 Mass Mod (%) (Erk1) | GI50 [2]
1 | C=C(C)S(=O)(=O)Nc1cc(F)ccc1Nc1nc(Nc2cc(C(C)=O)ccc2C)ncc1Cl [Compound I-243, N-(2-((2-((5-acetyl-2-methylphenyl)amino)-5-chloropyrimidin-4-yl)amino)-5-fluorophenyl)prop-1-ene-2-sulfonamide] | > 1000 nM | > 1000 nM | G (a mass modification ≦30%) | 
2 | C=CC(=O)N[C@@H]1CCCC[C@H]1Nc1nc(N[C@H]2CCCN(C(=O)CO)C2)ncc1C(F)(F)F [Compound I-32, N-((1R,2R)-2-((2-(((S)-1-(2-hydroxyacetyl)piperidin-3-yl)amino)-5-(trifluoromethyl)pyrimidin-4-yl)amino)cyclohexyl)acrylamide] | 101 to 500 nM | > 1000 nM | F (a mass modification of 31-69%) | 
3 | C=CC(=O)Nc1ccccc1Nc1nc(N[C@H]2CCC[C@@H](CO)C2)ncc1Cl (racemic) [Compound I-121, Rac-cis-N-(2-((5-chloro-2-((3-(hydroxymethyl)cyclohexyl)amino)pyrimidin-4-yl)amino)phenyl)acrylamide] | < 100 nM | < 100 nM | E (key: E: a mass modification of ≧70%; F: a mass modification of 31-69%; G: a mass modification ≦30%) | < 100 nM
4 | C#CCOc1cc(C)c(Nc2ncc(Cl)c(Nc3ccccc3NC(=O)C=C)n2)cc1C(N)=O [Compound I-228, 5-((4-((2-acrylamidophenyl)amino)-5-chloropyrimidin-2-yl)amino)-4-methyl-2-(prop-2-yn-1-yloxy)benzamide] | 101 to 500 nM | 101 to 500 nM | E (a mass modification of ≧70%) | 
5 | C=CC(=O)Nc1ccccc1Nc1nc(Nc2cc(C(N)=O)ccc2C(F)(F)F)ncc1Cl [Compound I-220, 3-((4-((2-acrylamidophenyl)amino)-5-chloropyrimidin-2-yl)amino)-4-(trifluoromethyl)benzamide] | 101 to 500 nM | 501 to 999 nM | E (a mass modification of ≧70%) | 
6 | C=CC(=O)Nc1ccccc1Nc1nc(N[C@@H]2CCC[C@H](C(N)=O)C2)ncc1C(F)(F)F [Compound I-7, (1S,3R)-3-((4-((2-acrylamidophenyl)amino)-5-(trifluoromethyl)pyrimidin-2-yl)amino)cyclohexanecarboxamide] |  | 501 to 999 nM | E (a mass modification of ≧70%) | 501 to 999 nM
7 | C=C(C)S(=O)(=O)Nc1cc(C)ccc1Nc1nc(Nc2cc(C(C)=O)ccc2C)ncc1C(F)(F)F [Compound I-98, N-(2-((2-((5-acetyl-2-methylphenyl)amino)-5-(trifluoromethyl)pyrimidin-4-yl)amino)-5-methylphenyl)prop-1-ene-2-sulfonamide] | 101 to 500 nM | > 1000 nM | G (a mass modification ≦30%) | 
8 | CC(=O)N1CCC[C@H](Nc2ncc(C(F)(F)F)c(Nc3ccccc3NC(=O)CCCl)n2)C1 [Compound I-21, (S)—N-(2-((2-((1-Acetylpiperidin-3-yl)amino)-5-(trifluoromethyl)pyrimidin-4-yl)amino)phenyl)-3-chloropropanamide] | 101 to 500 nM | > 1000 nM | G (a mass modification ≦30%) | 
9 | C=CC(=O)Nc1ccccc1Nc1nc(Nc2cc(C(=O)NOCCO)ccc2C)ncc1C(F)(F)F [Compound I-73, 3-((4-((2-Acrylamidophenyl)amino)-5-(trifluoromethyl)pyrimidin-2-yl)amino)-N-(2-hydroxyethoxy)-4-methylbenzamide] | 101 to 500 nM | 101 to 500 nM | E (a mass modification of ≧70%) | 101 to 500 nM
10 | C=CC(=O)Nc1ccccc1Nc1nc(N[C@H]2CCCN(C(=O)CCCC(=O)NCCCOCCOCCOCCCNC(=O)CCCC[C@@H]3SC[C@@H]4NC(=O)N[C@@H]43)C2)ncc1Cl [Compound I-303, 5-((S)-3-((4-((2-acrylamidophenyl)amino)-5-chloropyrimidin-2-yl)amino)piperidin-1-yl)-5-oxo-N-(15-oxo-19-((3aS,4S,6aR)-2-oxohexahydro-1H-thieno[3,4-d]imidazol-4-yl)-4,7,10-trioxa-14-azanonadecyl)pentanamide] |  | > 1000 nM | G (a mass modification ≦30%) | > 1000 nM
11 | C=CC(=O)Nc1cc(OC)ccc1Nc1nc(Nc2ccc(N3CCC[C@@H]3C(N)=O)cc2C#N)ncc1Cl [Compound I-180, (R)-1-(4-((4-((2-acrylamido-4-methoxyphenyl)amino)-5-chloropyrimidin-2-yl)amino)-3-cyanophenyl)pyrrolidine-2-carboxamide] | 501 to 999 nM | 501 to 999 nM | E (a mass modification of ≧70%) | > 1000 nM
